Measurements: ChEMBL document CHEMBL5136971, “Virtual screening and in vitro validation identifies the first reported inhibitors of Salmonella enterica HPPK” (RSC Med Chem, 2021)
Activity calls are given as the source filed them. The rule behind the calls is not given here.

How the values were obtained:
Salmonella enterica = experiment: Inhibition of Salmonella enterica HPPK at 50 uM incubated for 20 mins in presence of ATP by Kinase Glo luminescence assay
[1] = Inhibition of Salmonella enterica HPPK incubated for 20 mins in presence of ATP by Kinase Glo luminescence assay
Escherichia coli = experiment: Inhibition of Escherichia coli HPPK at 50 uM incubated for 20 mins in presence of ATP by Kinase Glo luminescence assay
[2] = Inhibition of Escherichia coli HPPK
[3] = Binding affinity to Escherichia coli HPPK
[4] = Inhibition of Salmonella enterica HPPK
[5] = Binding affinity to Salmonella enterica HPPK

**Q.** Which “inhibition activity call (active/inactive)” value (Salmonella enterica) does the source give for Cc1cccc(NC(=O)CN2C(=O)N/C(=C\c3cccn3-c3ccccc3)C2=O)c1 here?
**A.** Its value is “Active”.

**Q.** Which “inhibition activity call (active/inactive)” value (Salmonella enterica) does the source give for O=C(NCc1n[nH]c(=O)c2ccccc12)c1cccc(Cl)c1 here?
**A.** Its value is “Active”.

**Q.** What about the IC50 [1] of the same molecule?
**A.** The IC50 was 10400 nM.

**Q.** With O=C1CC(C(=O)Nc2cccc3ccccc23)C2(CCCCC2)O1 (stereo not given) as the molecule, how does the “inhibition activity call (active/inactive)” value (Salmonella enterica) read?
**A.** The value was “Active”.

**Q.** What about the inhibition (Escherichia coli) of the same molecule?
**A.** Its inhibition is “Active”.

**Q.** Which results are given for CC1(C)Nc2nc(N)[nH]c(=O)c2N=C1C(=O)NCCN1CCC(SC[C@H]2O[C@@H](n3cnc4c(N)ncnc43)[C@H](O)[C@@H]2O)CC1?
**A.** IC50 [2]: 3200 nM; Kd [3]: 2500 nM

**Q.** With O=C(c1ccccc1F)N1CCN(c2ccc([N+](=O)[O-])c3ncccc23)CC1 as the molecule, how does the “inhibition activity call (active/inactive)” value (Salmonella enterica) read?
**A.** Its value is “Active”.

**Q.** Which IC50 [4] does the source give for Nc1nc2[nH]c(SCc3ccccc3F)nc2c(=O)[nH]1 here?
**A.** The IC50 was 25000 nM.

**Q.** And the Kd [5]?
**A.** The Kd was 450 nM.

**Q.** Which “inhibition activity call (active/inactive)” value (Salmonella enterica) does the source give for CCOC(=O)N1CCN(S(=O)(=O)c2ccc3c4c(cccc24)C(=O)N3)CC1 here?
**A.** Its value is “Active”.

**Q.** For Cc1ccc2c(C)c(C(=O)NCc3ccc(S(N)(=O)=O)cc3)oc2c1, which “inhibition activity call (active/inactive)” value (Salmonella enterica) is on record?
**A.** The value was “Active”.

**Q.** What about the inhibition (Escherichia coli) of the same molecule?
**A.** Its inhibition is “Active”.

**Q.** For CC1(C)Nc2nc(N)[nH]c(=O)c2N=C1C(=O)NCCN1CC[C@@H](SC[C@H]2O[C@@H](n3cnc4c(N)ncnc43)[C@H](O)[C@@H]2O)C[C@@H]1C(=O)O, which IC50 [2] is on record?
**A.** Its IC50 is 380 nM.

**Q.** And the Kd [3]?
**A.** Its Kd is 190 nM.
